The values below come from PubChem BioAssay AID463199 (Broad Institute, 2010).

Structures are written as SMILES. The source made the active and inactive calls.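 The calls were made as follows: active = AC50, the dose giving half-maximal effect, exceeds a fixed cutoff for a compound that rescues yeast growth under heat; inactive = the rest, inconclusive results apart.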

This test deals with S. cerevisiae Burl-1 ts mutant growth, BacTiter-Glo, 38.5C 24 h. As to the kind of experiment: growth induction of Burl-1 ts yeast mutant, dose response, counter-screen for SUMOylation pathway inhibitor project, whole organism, S. cerevisiae, luminescence (AID 463199). (A counterscreen serves to expose hits that act by an unwanted route or on another target.)

For the compound `O=C(Nc1ccc(Cl)cc1Cl)c1cccc(N2C(=O)C=CC2=O)c1`, the AC50 (in general, the midpoint of the concentration-response curve, whichever way the signal moves) is > 42 µM (inactive).
For `Cc1c(C(=O)Nc2cccc(F)c2)cnn1-c1ccccc1` the value was > 42 µM (inactive); for `COc1ccc(NC(=O)COc2cc(C)cc(C)c2)cc1S(=O)(=O)N1CCCCC1`, > 42 µM (inactive).
Take `COc1ccc(-c2[nH]ncc2CNCCn2cccn2)c(F)c1`: the AC50 was > 42 µM (inactive).
Under `COC(=O)C1C2C=CC3(CN(CCc4ccccc4)C(=O)C13)O2` (centres undefined) stands > 21 µM (inactive); under `O=C(COc1ccc(F)cc1Cl)N(Cc1nnc(-c2ccccc2Cl)o1)C1CC1`, > 42 µM (inactive).
Under `Cc1cc(Oc2cc(NN3CCCCC3)c([N+](=O)[O-])cc2[N+](=O)[O-])ccc1[N+](=O)[O-]` stands > 42 µM (inactive); under `COC(=O)Nc1ccc(S(=O)(=O)N2CCCC(C(=O)NC3CCS(=O)(=O)C3)C2)cc1` (centres undefined), > 42 µM (inactive).
With `CSc1ccc(CN2CCN(S(=O)(=O)Cc3ccccc3)CC2)cc1`, the AC50 was > 42 µM (inactive).
Under `c1ccc(CNc2ccc3ccccc3n2)nc1` stands > 42 µM (inactive).
Under `CC(=O)c1ccc(C(=O)N2CCCC(N3CCN(c4ccc(F)cc4)CC3)C2)s1` (centres undefined) stands > 42 µM (inactive).
Regarding `CC(C)=CC(=O)N1CCCC(N2CCN(c3ccc(F)cc3)CC2)C1` (centres undefined), the half-maximal activity concentration (AC50) was 2.02 µM.
Under `CC1(OC(=O)CCc2ccccc2)C(=O)C=C2C=C(c3ccc(C#N)cc3)N(C3CCCC3)C=C2C1=O` (centres undefined) stands > 42 µM (inactive); under `COc1cccc(Nc2nc(C)nc3c2oc2ccccc23)c1`, > 42 µM (inactive); under `CCCCOc1ccc(C(O)C(CN2CCOCC2)c2ccccc2)cc1` (centres undefined), > 42 µM (inactive).
For `COc1ccc(C2SCC(=O)Nc3c2c(=O)[nH]n3C2CCCCC2)cc1` (centres undefined) the value was > 42 µM (inactive); for `COC(=O)c1ccc2[nH]c(C(C)(C)O)c(C)c2c1`, > 42 µM (inactive).
For `O=C(O)c1ccc(S(=O)(=O)N2CCN(c3ccccn3)CC2)cc1` the value was > 42 µM (inactive).
Regarding `O=C(Nc1ncccn1)c1ccc(C(F)(F)F)cc1`, the AC50 was > 42 µM (inactive).
Under `O=C(CSc1nccc(=O)[nH]1)c1cc2ccccc2o1` stands > 42 µM (inactive).
For `Cc1sc2nc(N)sc2c1C` the value was > 42 µM (inactive); for `COc1ccc(NC(=O)CCCc2ccccc2)cc1OC`, 9.43 µM.
For `CC12CC3(C)CC(C)(C1)CC(C(=O)NC(=S)N1CCCC1)(C2)C3` the value was > 42 µM (inactive).
For the compound `C=C(C)C(=O)OC1(C(F)(F)F)Oc2cc(C)ccc2NC1=O` (centres undefined), the AC50 was > 42 µM (inactive).
For `N#Cc1ccc(C23CC4(C2)[C@H](CN(Cc2ccc(C(F)(F)F)cc2)[C@@H]4c2ccccc2)C3c2ccc(C(F)(F)F)cc2)cc1` (some centres undefined) the value was > 42 µM (inactive); for `Nc1cc(C(=O)OCC(=O)N2CCOCC2)ccc1Cl`, > 42 µM (inactive); for `O=c1c2ccccc2c2ccccc2c(=O)n1-c1ccccc1`, > 42 µM (inactive).
For `O=C(NCc1cccnc1)C1CCN(S(=O)(=O)c2cccnc2)CC1` the value was > 42 µM (inactive); for `COc1ccc(OC)c(NC(=O)CN(C)S(=O)(=O)c2ccc(Cl)cc2)c1`, > 42 µM (inactive); for `COc1ccccc1N1CCN(C(=O)c2ccc(N3CCCCS3(=O)=O)cc2)CC1`, > 42 µM (inactive).
Under `Cc1sc2nc(SCC(=O)NCCOCCO)n(C)c(=O)c2c1C` stands > 42 µM (inactive).
Turning to `Cc1ccc(-n2nc3c(=O)n(CCCC(=O)NCc4cccc(F)c4)nc(C)c3c2C)cc1`, the AC50 was > 42 µM (inactive).
For `CO/N=C/c1ccc(Oc2ccc(C)cc2)nc1` the value was > 42 µM (inactive); for `Cc1ccc(NC(=O)NNC(=O)Cn2nc(-c3ccccc3)c(-c3ccccc3)c(C#N)c2=O)cc1`, > 42 µM (inactive).
